Laboratory results from patent US8975232B2, “Macrocyclic kinase inhibitors and uses thereof” (President and Fellows of Harvard College, priority 2010, dated 2015).

Tests used:
Lck = molecular target: T1, Lck (Mus musculus, UniProt P06240); assay: Continuous spectrophotometric kinase activity assay; assay type: biochemical, murine
T1 construct: murine Lck (residues 227-509); made in house

Src kinase = Src kinase (Homo sapiens, UniProt P12931); assay: Z'-LYTE kinase assay (Invitrogen), Src; assay type: biochemical; design: full-length kinase in the Z-LYTE assay vs. kinase domain in the current study; purchased Millipore
Chain of Src kinase (P12931 whole entry, the tested form may be a part): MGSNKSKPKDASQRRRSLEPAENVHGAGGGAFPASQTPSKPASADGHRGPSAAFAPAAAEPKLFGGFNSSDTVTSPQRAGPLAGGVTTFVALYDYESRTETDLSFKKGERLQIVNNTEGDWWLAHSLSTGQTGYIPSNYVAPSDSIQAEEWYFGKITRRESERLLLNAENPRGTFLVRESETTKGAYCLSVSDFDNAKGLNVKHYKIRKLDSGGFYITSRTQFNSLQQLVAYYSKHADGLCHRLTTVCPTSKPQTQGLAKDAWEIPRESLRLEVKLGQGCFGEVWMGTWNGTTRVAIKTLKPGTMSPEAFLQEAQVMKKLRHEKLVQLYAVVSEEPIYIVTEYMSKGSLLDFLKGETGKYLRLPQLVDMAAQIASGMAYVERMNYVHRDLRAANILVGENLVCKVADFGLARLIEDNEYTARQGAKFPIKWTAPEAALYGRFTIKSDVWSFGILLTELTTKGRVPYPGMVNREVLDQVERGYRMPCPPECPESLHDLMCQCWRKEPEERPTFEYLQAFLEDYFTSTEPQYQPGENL
How it was run: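 Human Src activity measured by FRET-based Z′-LYTE Tyr 02 peptide assay at ATP near KM,ATP unless noted. IC50s and single-point inhibition determined over varying macrocycle concentrations. Non-Src kinases tested via a commercial profiling service.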

T1 sequence (P06240 227-509): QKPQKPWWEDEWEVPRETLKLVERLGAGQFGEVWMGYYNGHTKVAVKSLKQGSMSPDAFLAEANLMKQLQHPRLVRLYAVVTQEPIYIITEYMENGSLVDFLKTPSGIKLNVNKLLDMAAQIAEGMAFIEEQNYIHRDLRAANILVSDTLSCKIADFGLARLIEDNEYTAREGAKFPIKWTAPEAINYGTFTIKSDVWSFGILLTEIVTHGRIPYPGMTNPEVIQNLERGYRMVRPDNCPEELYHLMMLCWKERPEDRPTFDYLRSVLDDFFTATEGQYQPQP

Question: For `NC(=O)[C@@H]1CCCNC(=O)[C@H](Cc2ccc([N+](=O)[O-])cc2)NC(=O)[C@H](Cc2ccco2)NC(=O)[C@H](CC2CC2)NC(=O)/C=C/C(=O)N1` [trans-A10-B1-C5-D6], which IC50 (Lck; 5 μM ATP, 100 μM Src optimal peptide) is on record?
Answer: > 100 µM

Question: And the IC50 (Lck; 5 μM ATP, 300 μM Src optimal peptide)?
Answer: > 100 µM

Question: What about the IC50 (Lck; 250 μM ATP, 300 μM Src optimal peptide) of the same molecule?
Answer: > 100 µM

Question: And the “% inhibition” value (Src kinase; SRC, 5 μM, data from FIG. 8 and Table 6)?
Answer: 86%

Question: What about the “mode of Src inhibition” value (Src kinase; apparent KM for ATP versus macrocycle concentration) of the same molecule?
Answer: ATP-competitive
